In patent US4250097A, “Compositions for and a method of preventing diabetic complications” (Syntex (U.S.A.) Inc., priority 1978, dated 1981):

Columns and labels:
Aldose reductase = biological target: T1, Aldose reductase (Oryctolagus cuniculus, UniProt P15122); test: Aldose reductase inhibition, in vitro (loss of absorbance at 340 millimicrons, glyceraldehyde substrate, NADPH); format: biochemical, New Zealand rabbits (lens); details: pH 6.0, 37° C; for inhibition at 100 µM: 1 × 10^-4 molar concentration of xanthone compound; for inhibition at 10 µM: 1 × 10^-5 molar concentration of xanthone compound; for inhibition at 1 µM: 1 × 10^-6 molar concentration of xanthone compound
T1 construct: Aldose reductase is isolated by homogenizing the lens in 3 volumes of water; from tissue; host or cells: lens of mature New Zealand rabbits
Experimental: In brief, a solution of the enzyme is added to an appropriately buffered solution containing glyceraldehyde. The loss of ultra violet absorbance at 340 millimicrons is indicative of the rate of reaction of the aldehyde with the enzyme as previously reported by Hayman and Kinoshita, (J. Biol. Chem: 240, 877, (1965)).
Fifty lenses are obtained from mature, New Zealand, rabbits and are immediately frozen on dry ice. Aldose reductase is isolated by homogenizing the lens in 3 volumes of water for 30 seconds in a Waring blender followed by centrifugation at 10,000 xg for 15 minutes to remove insoluble material. Saturated ammonium sulfate is added to the supernatant fluid to 40% saturation. The suspension is centrifuged after 15 minutes, and the supernatant liquid recovered. Additional protein is removed by increasing the ammonium sulfate concentration to 50%, and centrifuging the mixture. Aldose reductase is precipitated from the 50% saturated solution by the addition of powdered ammonium sulfate to 75% saturation and is recovered by centrifugation. The precipitated enzyme is assayed by following the ultraviolet absorbance at 340 millimicrons after dissolving the enzyme in 0.05 M sodium chloride. The enzyme (0.50 ml) is added to a quartz cuvette containing phosphate buffer (0.067 M, pH 6.0), NADPH (2×10^-5 M), and water to a final volume of 3 ml and the cuvette inserted in a conventional ultra-violet spectrometer. The reaction is started by the addition of substrate (glyceraldehyde) to the contents of the cuvette and is followed by the determination of loss of absorbance at 340 millimicrons for 2 minutes at 37° C. The reaction rate observed is usually linear for at least 5 minutes.
All results are shown in Tables I, II, and III as % inhibition, i.e. based on a non-inhibited control sample, no inhibition, 0%.

lens aldose reductase = details: in vitro; cited from earlier work

inhibition at 100 µM (Aldose reductase)	inhibition at 10 µM (Aldose reductase)	inhibition at 1 µM (Aldose reductase)	% Inhibition (Aldose reductase; molar concentration printed (Table II))	SMILES	inhibition of lens aldose reductase (potency in words) (lens aldose reductase)
89%	69%	17%		CC(C)N(C)S(=O)(=O)c1ccc2oc3ccc(C(=O)O)cc3c(=O)c2c1	
90%	65%	25%		CC(C)CCOc1cc([S+](C)[O-])cc2c(=O)c3cc(C(=O)O)ccc3oc12 (stereo not drawn)	
95%	75%	25%		CCCCN(C)S(=O)(=O)c1ccc2oc3ccc(C(=O)O)cc3c(=O)c2c1	
97%	67%	17%		CSc1cc(C(C)C)c2oc3ccc(C(=O)O)cc3c(=O)c2c1	
85%	67%	17%		CSc1cc(OC(C)C)c2oc3ccc(C(=O)O)cc3c(=O)c2c1	
85%	60%	30%		CSc1cc(OC(C)C)cc2c(=O)c3cc(C(=O)O)ccc3oc12	
89%	73%	3%		CC(C)Oc1ccc2oc3ccc(C(=O)O)cc3c(=O)c2c1	
	81%	54%		O=C(O)c1ccc2oc3ccc(OCC(O)CO)cc3c(=O)c2c1 (stereo not drawn)	
	67%			O=C(O)c1ccc2oc3ccc(S(=O)(=O)N(CCO)CCO)cc3c(=O)c2c1 [(HOCH2 CH2)2 N 2 H]	
95%	70%	35%		CCCCCOc1cc([S+](C)[O-])cc2c(=O)c3cc(C(=O)O)ccc3oc12 (stereo not drawn) [CH3 1 n-C5 H11 O]	
96%	83%	42%		CCCCCCCCOc1cc([S+](C)[O-])cc2c(=O)c3cc(C(=O)O)ccc3oc12 (stereo not drawn) [CH3 1 n-C8 H11 O]	
	50%			C[S+]([O-])c1cc(S(C)(=O)=O)cc2c(=O)c3cc(C(=O)O)ccc3oc12 (stereo not drawn) [CH3 2 CH3 SO]	
	54%	50%	63%	CCC(=O)c1ccc2oc3ccc(C(=O)O)cc3c(=O)c2c1 [CH3 CH2 H]	
	39%	25%		COc1cc(OC)c2oc3ccc(C(=O)O)cc3c(=O)c2c1 [CH3 O CH3 O]	
81%	39%	17%		COc1ccc2oc3ccc(C(=O)O)cc3c(=O)c2c1 [CH3 O H]	
70%	43%			O=C(O)c1ccc2oc3ccc(S(=O)(=O)O)cc3c(=O)c2c1 [H 3 H]	
78%	50%	28%		COc1cccc2c(=O)c3cc(C(=O)O)ccc3oc12 [H CH3 O]	
	83%			O=C(O)c1ccc2oc3ccc(S(=O)(=O)CCO)cc3c(=O)c2c1 [HO(CH2)2 2 H, 7-(2-hydroxyethylsulfonyl)xanthone-2-carboxylic acid]	
				CC1OC(Oc2c(-c3cc(O)c(O)c(O)c3)oc3cc(O)cc(O)c3c2=O)C(O)C(O)C1O (stereo not drawn) [myrecetrin]	among the most potent
				O=c1c(O)c(-c2ccc(O)c(O)c2)oc2cc(O)cc(O)c12 [quercetin]	among the most potent
				CC1OC(Oc2c(-c3ccc(O)c(O)c3)oc3cc(O)cc(O)c3c2=O)C(O)C(O)C1O (stereo not drawn) [quercetrin]	among the most potent
